Measurements published in patent publication US10011863B2, “Methods for detecting enhanced NMDA receptor function and uses thereof” (INOVA HEALTH SYSTEM, priority 2016, dated 2018).

Columns and labels:
[1] = system: human GRIN2B promoter (A allele of SNP rs3764030) in N2a cells; test: dual-luciferase reporter gene assay, GRIN2B promoter A allele plasmid; type: cell-based, murine
Description: (§1) FIG. 3 depicts a concentration dependent response of human GRIN2B promoter in N2a cells carrying either the A or G alleles of SNP rs3764030 to NMDA. Luciferase reporter gene plasmids were constructed in pGL 4.10 (to produce Firefly luciferase, Promega, US). Luciferase reporter plasmids and the pGL4.75 plasmid (to produce Renilla luciferase as a reference) were co-transfected into retinoic acid differentiated N2a cells and assayed for (Methods). After 24 hours of transfection, the cells were incubated for six hours with 0, 30, 50, 70 or 90 μM NMDA for transcription factors binding and then replaced with complete media (with 10% FBS) and cultured for an additional 40-44 hrs. Data are presented as means±SE.
(§2) Molecular and cellular characterization of a functional GRIN2B SNP: Luciferase vector construction. […]
(§3) Cell Culture, Transfection, and Luciferase assay. […] The luciferase activities were then measured in Synergy 4 plate reader (Biotek, US).
(§4) Murine Neuro-2a neuroblastoma cells were maintained in RPMI medium 1640 with 10% Fetal Bovine Serum (complete medium) at 37° C. in 5% CO2. […] The luciferase activities were then measured in Synergy 4 plate reader (Biotek US).

[2] = system: human GRIN2B promoter (G allele of SNP rs3764030) in N2a cells; test: dual-luciferase reporter gene assay, GRIN2B promoter G allele plasmid; type: cell-based, murine; details: N2A cells transfected with G allele luciferase reporter plasmid; increasing concentrations of NMDA
Description: as §1, §2, §3, §4

[3] = target: T1, recombinant human Elk-1 protein (Homo sapiens, UniProt P19419); test: Electrophoretic Mobility Shift Assay (EMSA); type: binding; details: 1 μg recombinant human Elk-1; gel stained for DNA (SYBR Green) and protein (SYPRO Ruby)
T1 construct: purchased Sigma Aldrich
T1 sequence (P19419 1-428): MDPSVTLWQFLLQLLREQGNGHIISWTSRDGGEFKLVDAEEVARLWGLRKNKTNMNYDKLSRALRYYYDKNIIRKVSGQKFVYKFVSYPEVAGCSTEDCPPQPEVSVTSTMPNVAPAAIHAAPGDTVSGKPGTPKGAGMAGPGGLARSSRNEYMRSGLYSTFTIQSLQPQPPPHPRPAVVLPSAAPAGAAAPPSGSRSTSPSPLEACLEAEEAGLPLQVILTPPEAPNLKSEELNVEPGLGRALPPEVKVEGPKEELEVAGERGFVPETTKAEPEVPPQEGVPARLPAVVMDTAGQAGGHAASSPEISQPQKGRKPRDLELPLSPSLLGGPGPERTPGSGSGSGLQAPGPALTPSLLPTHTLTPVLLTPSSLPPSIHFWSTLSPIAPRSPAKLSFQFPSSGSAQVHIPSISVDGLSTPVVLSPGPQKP
Description: FIG. 2 depicts binding of recombinant Elk-1 protein (an ETS transcription factor) to double stranded DNAs containing the single nucleotide polymorphism (SNP) rs3764030 variant A allele from the human GRIN2B gene promoter. Double-stranded DNA targets (Methods) were sequentially incubated with 1 μg recombinant human Elk-1 protein in EMSA buffer, then incubated with the Elk-1 antibody 20 minutes. […] Samples were electrophoresed through 6% polyacrylamide gels in HEPES buffer pH 6.3, without polydldC. The gel was then stained with the SYBR Green to visualize DNA and SYPRO Ruby for protein bound to DNA. The stained gel was scanned using G:BOX (Syngene, US) for imaging. Elk-1 bound to DNA is indicated by the arrow.
Electrophoretic Mobility Shift Assay (EMSA). To monitor the interaction between the ETS domain transcription factor, Elk-1, and its DNA recognition sequence in vitro, we used EMSA. The DNA sequences for positive control containing a GGAT consensus core binding sequence were: Forward: 5′ […] 3′ (SEQ ID NO:2) and Reverse: 5′ […] 3′ (SEQ ID NO:3). The negative control region was: Forward: 5′ […] 3′ (SEQ ID NO:4) and Reverse: 5′ […] 3′ (SEQ ID NO:5), as described in Wei et al (2010). The forward and reverse sequence for GRIN2B A allele which created the ETS binding site were: 5′ […] 3′ (SEQ ID NO:6)and 5′ […] 3′ (SEQ ID NO:7), repectively. […]

Row | Molecule | dose-dependent increase in luciferase activity ([1]; N2A cells transfected with A allele reporter, increasing concentrations of NMDA (0, 30, 50, 70, 90 μM)) | reporter gene activity of A allele relative to cells carrying the G allele reporter ([1]; NMDA receptor activation, dose-dependent, A allele vs G allele) | luciferase reporter response to NMDA treatment [2] | binding of recombinant Elk-1 to DNA probe [3]
1 | CN[C@H](CC(=O)O)C(=O)O [NMDA, N-methyl-D-aspartate] | 2.4-11.5 fold | 2 fold | did not respond | 
2 | A allele DNA probe: annealed dsDNA of GRIN2B A allele, 5′ CATCTCCGGGGAACACGCGAA 3′ (SEQ ID NO:6) and SEQ ID NO:7, creating ETS binding site (chain 2 TTCGCGTGTTCCCCGGAGATG; listed as DNA, chemistry not given here) |  |  |  | bound recombinant Elk-1 to a greater extent than the G allele DNA probe
